From ChEMBL document CHEMBL5518181, “Studies of antibacterial activity (in vitro and in vivo) and mode of action for des-acyl tridecaptins (DATs)” (Eur J Med Chem, 2024) come the findings set out here.

Values after ≈ are worked out from the molar mass of the structure shown. Active and inactive are the calls of the source. The rule behind the calls is not given here. Where only a bound is given, the exact number is not on record here.

Data set [1] in a line: Toxicity in naive mouse assessed as drug tolerance at 20 mg/kg, sc administered as single dose every 4 hrs for 24 hrs. It is filed as organism-based. As to conditions: in vivo.
For data set [2], the system named is Escherichia coli. The data set can be described thus: Antibacterial activity against Escherichia coli Swiss 7 harboring mcr-1 gene assessed as inhibition of bacterial growth incubated for 18 hrs. As to conditions: read-out: MIC100. It is filed as functional.
A short description of data set [3]: Drug uptake in Acinetobacter baumannii ATCC 19606 whole cells assessed as log10 increase in drug accumulation at 10 uM incubated for 10 mins by LC-MS/MS analysis relative to H-(D-Val)-(D-Dab)-Gly-(D-Ser)-(D-Trp)-Ser-Dab-(D-Dab)-Phe-Glu-Val-(D-allo-Ile)-Ala-OH. It is filed as ADME.
The subject of another data set is Staphylococcus aureus. The data set can be described thus: Antibacterial activity against wild type Staphylococcus aureus USA300 assessed as inhibition of bacterial growth incubated for 18 hrs. As to conditions: read-out: MIC100. It is filed as functional.
The nature of data set [4]: Drug uptake in Pseudomonas aeruginosa PAO1 whole cells assessed as log10 increase in drug accumulation at 10 uM incubated for 10 mins by LC-MS/MS analysis relative to H-(D-Val)-(D-Dab)-Gly-(D-Ser)-(D-Trp)-Ser-Dab-(D-Dab)-Phe-Glu-Val-(D-allo-Ile)-Ala-OH. It is filed as ADME.
Data set [5] concerns Cell membrane. Nature of the data set: Induction of membrane permeabilization in Escherichia coli ATCC 25922 at 4 to 10 ug/ml measured after 30 mins by Sytox Green labelling based microscopic analysis. It is filed as cell membranes. As to conditions: dose 4-10 µg/ml.
A further data set deals with Proteus mirabilis. The data set can be described thus: Antibacterial activity against Proteus mirabilis ATCC 7002 assessed as inhibition of bacterial growth incubated for 18 hrs. It is filed as functional. The following applies: read-out: MIC100.
Data set [6] can be described thus: Drug localization in membrane fraction of Escherichia coli ATCC 25922 at 10 uM incubated for 10 mins by LC-MS/MS analysis. It is filed as ADME, cell membranes.
In the next data set the test system is Klebsiella pneumoniae. The data set can be described thus: Antibacterial activity against wild-type Klebsiella pneumoniae ATCC 13883 assessed as inhibition of bacterial growth incubated for 18 hrs. It is filed as functional. As to conditions: read-out: MIC100.
A short description of data set [7]: Lipophilicity, logD of compound at pH 7.4. It is filed as physicochemical. The following applies: buffer.
Data set [8] is described as follows: Aqueous solubility of compound at pH 4.6. It is filed as physicochemical.
Data set [9] in a line: Aqueous solubility of compound at pH 7.4. It is filed as physicochemical.
The subject of data set [10] is Cell membrane. Nature of the data set: Induction of membrane permeabilization in Klebsiella pneumoniae ATCC 13883 at 4 to 10 ug/ml measured after 30 mins by Sytox Green labelling based microscopic analysis. It is filed as cell membranes. The following applies: dose 4-10 µg/ml.
Data set [11] relates to Escherichia coli. The data set can be described thus: Antibacterial activity against wild-type Escherichia coli ATCC 25922 assessed as inhibition of bacterial growth incubated for 18 hrs. It is filed as functional. As to conditions: read-out: MIC100.
Data set [12] in a line: Drug uptake in Escherichia coli ATCC 25922 assessed as fold increase in cellular drug concentration at 10 uM incubated for 10 mins by LC-MS/MS analysis. It is filed as ADME.
In a further data set the test system is Pseudomonas aeruginosa. Nature of the data set: Antibacterial activity against efflux-deficient Pseudomonas aeruginosa PAO750 assessed as inhibition of bacterial growth incubated for 18 hrs. It is filed as functional. As to conditions: read-out: MIC100.
A further data set deals with Morganella morganii. The data set can be described thus: Antibacterial activity against Morganella morganii ATCC 25830 assessed as inhibition of bacterial growth incubated for 18 hrs. It is filed as functional. The following applies: read-out: MIC100.
Data set [13] concerns Escherichia coli. The data set can be described thus: Antibacterial activity against Escherichia coli ATCC BAA-2469 expressing NDM-1 assessed as inhibition of bacterial growth incubated for 18 hrs. It is filed as functional. The following applies: read-out: MIC100.
The test system of data set [14] is Escherichia coli. Nature of the data set: Antibacterial activity against colistin resistant Escherichia coli NCTC 13846 harboring mcr-1 gene assessed as inhibition of bacterial growth incubated for 18 hrs. It is filed as functional. As to conditions: read-out: MIC100.
Data set [15] in a line: Drug uptake in Proteus mirabilis ATCC 7002 whole cells at 10 uM incubated for 10 mins by LC-MS/MS analysis. It is filed as ADME.
For data set [16], the system named is Escherichia coli. Nature of the data set: Antibacterial activity against Escherichia coli Swiss 9 harboring mcr-1 gene assessed as inhibition of bacterial growth incubated for 18 hrs. The following applies: read-out: MIC100. It is filed as functional.

For COLISTIN, the Activity entry in data set [1] was “Non-Toxic”.

With `CCCCCCCC(=O)N[C@@H](C(=O)N[C@H](CCN)C(=O)NCC(=O)N[C@H](CO)C(=O)N[C@H](Cc1c[nH]c2ccccc12)C(=O)N[C@@H](CO)C(=O)N[C@@H](CCN)C(=O)N[C@H](CCN)C(=O)N[C@@H](Cc1ccccc1)C(=O)N[C@@H](CCC(=O)O)C(=O)N[C@H](C(=O)N[C@@H](C(=O)N[C@@H](C)C(=O)O)[C@@H](C)CC)C(C)C)C(C)C`, the MIC in the data set on Escherichia coli [2] is 1 µg/mL (≈ 0.658 µM); in the data set on Staphylococcus aureus it was 32 µg/mL (≈ 21 µM); in the data set on Proteus mirabilis, 32 µg/mL (≈ 21 µM); in the data set on Klebsiella pneumoniae, 4 µg/mL (≈ 2.63 µM); in the data set on Escherichia coli [11] it was 2 µg/mL (≈ 1.32 µM); in the data set with Pseudomonas aeruginosa it was greater than 32 µg/mL. Moreover, the MIC was greater than 32 µg/mL in the data set with Morganella morganii, 1 µg/mL (≈ 0.658 µM) in the data set with Escherichia coli [13], 1 µg/mL (≈ 0.658 µM) with Escherichia coli [14] and 0.5 µg/mL (≈ 0.329 µM) in the data set with Escherichia coli [16]. Moreover, the “log(activity)” value in data set [3] and in data set [4] was 2 each time. Besides, the result in the data set with Cell membrane [5] and in the data set on Cell membrane [10] was Active. In addition, the Drug uptake result in data set [6] and in data set [15] was “Active” each time. For the same compound, the logD in [7] was determined as 2.24. Also, the solubility in data set [8] was determined as 88 mg/mL (≈ 57900 µM); in data set [9] it was 30 mg/mL (≈ 19700 µM). In data set [12], the “fold change (FC)” value is 30.

One may read the logD as the decadic logarithm of the distribution of all forms, ionised or not, between an organic phase and buffer at a given pH. Read a low logD as lower lipophilicity. As a reminder, the solubility is the concentration that dissolves in the medium under given conditions. Read a high solubility as a readily soluble substance.
